Reference: ChEMBL document CHEMBL4145608, “Dehydrodiconiferyl Alcohol Inhibits Osteoclast Differentiation and Ovariectomy-Induced Bone Loss through Acting as an Estrogen Receptor Agonist” (J Nat Prod, 2018)

What was measured:
[1] = tested on: RAW264.7; assay: Inhibition of NF-kappaB/p38 MAPK signaling pathway in mouse RAW264.7 cells assessed as reduction in RANKL-induced DC-STAMP mRNA level after 24 hrs by qRT-PCR method; type: cell-based
[2] = tested on: Mus musculus; assay: Anti-osteoporotic activity in ip dosed OVX-induced bone loss in femur of Balb/c mouse administered for 4 weeks daily by microcomputed tomography; type: functional, organism-based

With `COc1cc(C2Oc3c(OC)cc(/C=C/CO)cc3C2CO)ccc1O` (configuration not stated) as the compound, how does the inhibition [1] read?
Its inhibition is “Dose-dependent effect”.

What about the Activity [2] of the same compound?
The Activity was “Dose-dependent effect”.
